Laboratory results: patent EP0603240B1, “SAFENING HERBICIDAL PYRAZOLYLSULFONYLUREAS” (priority 1991, dated 1993)
Read-outs that look alike come from different tables or passages of the source.

Assays:
Assay type in all cases: in vivo
[1] = test system: velvetleaf (Abutilon theophrasti); experiment: Example 6, Procedure II: Herbicide No. 1 + alachlor (No. 7) with antidotes
Description: (§1) Containers were filled and compacted with a fumigated silt loam top soil to a depth of about 1.3 cm from the top of the container. A first container was designated as an untreated control, a second container was designated as a herbicide control, and a third container was designated as a herbicide + antidote test container. Each of the containers was seeded with a crop species. A measured amount of herbicide dispersed or dissolved in acetone was applied to a measured quantity of soil. To this same quantity of soil treated with herbicide, there was added a measured amount of antidote dispersed or dissolved in acetone. The quantity of soil treated with the herbicide and antidote was thoroughly mixed to incorporate the herbicide and antidote in the soil uniformly. The seed bed in the third container of soil was covered with the soil treated with the herbicide and antidote and the container was leveled. For each test series, the seed beds of the first and second containers were likewise covered by soil layers. the cover layer of the first container was not treated with herbicide or antidote.
(§2) The containers were then placed on a bench in a greenhouse and sub-irrigated as required for the duration of the test. […] Plant response is measured in terms of percent injury. Antidote efficacy is indicated as the difference in plant injury by the herbicide(s) without the antidote and with the antidote.
(§3) This procedure is the same as Procedure I, but modified in the manner that after incorporation of the chemicals (herbicide and antidote) the containers with the covered seedbed were treated with an initial overhead irrigation equivalent to 0.6 cm rainfall, then subsequently sub-irrigated as required on greenhouse benches.
(§4) In the series of greenhouse tests described below, for routine screening purposes the herbicide/antidote compositions were tested in crop/weed combinations involving corn as the crop and either or both of the weeds barnyardgrass (Echinochloa crusgalli), a monocotyledonous weed, and velvetleaf (Abutilon theophrasti), a dicotyledonous weed. In the tables below, these weeds are indicated by the symbols "BYG" and "VL", respectively.
(§5) This example was designed to investigate the antidotal efficacy of a plurality of antidotal compounds against a composition comprising Herbicide No. 1 in combination with Herbicide No. 7 (alachlor). The antidotal compounds used herein were Nos. 1, 2, 7, 13 and 15.
(§6) In this example, Procedure II described above was followed. The data from the tests in this example is shown in Table 6 and represents averages of duplicate replications.

[2] = test system: barnyardgrass (Echinochloa crusgalli); experiment: as above
Description: as §1, §2, §3, §4, §5, §6

[3] = test system: velvetleaf (Abutilon theophrasti); experiment: Example 24, Procedure II: Herbicide No. 1 + co-herbicides Nos. 4, 6, 7, 12 with Antidote Nos. 15 and 17-21; details: Abutilon theophrasti
Description: as §1, §2, §3
In other greenhouse tests, using Procedure II described above, the safening efficacy of Antidote Nos. 15 and 17-21 was evaluated against Herbicide No. 1 in corn in the presence of Giant foxtail (Setaria fabergi) and Velvetleaf (Abutilon theophrasti) as representative annual monocotyledonous and dicotyledonous weeds, respectively.
Test results are shown in Tables 23A and 23B wherein the indicated plant inhibition represents the average of duplicate replications, with observations being made thirteen (13) days after application of the chemicals. Giant foxtail and Velvetleaf are represented by the symbols "GFT" and "VL", respectively. The data in Table 23A show the test results using the antidotes at 2.24 kg/ha, whereas in Table 23B, the antidotal rate was reduced to 0.56 kg/ha.
The tests described in Example 23 were duplicated, but in this example a variety of co-herbicides were included to ascertain the efficacy of the antidotes against combinations of Herbicide No. 1 and Herbicides Nos. 4, 6, 7 and 12 as co-herbicides. Test results are shown in Table 24, wherein the antidote application rate was 2.24 kg/ha.

[4] = test system: velvetleaf (Abutilon theophrasti); experiment: Example 22: retest of Example 21 at reduced greenhouse temperatures; details: Table 22
Description: as §1, §2, §3, §4
(§7) In this example, tests were conducted as in the preceding Examples 18-20, except here the co-herbicidal component was SUTAN® PLUS, a commercial product comprising as the active herbicidal ingredient the compound butylate (Herbicide No. 10) and an antidote […] (Antidote No. 1). Again, the antidotal compounds herein were Nos. 1, 2, 7, 13 and 15. Procedure II was used.
(§8) The experiments in this example were designed as a retest of those described in Example 21 in view of the uncharacteristically poor corn safety and weed control, believed to have resulted from unseasonably high temperatures in the greenhouse. Accordingly, temperatures were reduced for these tests.

[5] = test system: barnyardgrass (Echinochloa crusgalli); experiment: as above; details: Table 22
Description: as §1, §2, §3, §4, §7, §8

corn [6] = experiment: Example 18, Procedure II: Herbicide No. 1 + ERADICANE (EPTC + R-25788) with auxiliary antidotes
Description: as §1, §2, §3
(§9) In the test reported in this example, the herbicidal composition was similar to that used in Example 16 in that Herbicide No. 1 was combined with EPTC (Herbicide No. 4) as a co-herbicide and the antidotes included Nos. 1, 2, 7, 13 and 15. However, in this test the EPTC was introduced as a formulation of ERADICANE (EPTC + the antidote R-25788, i.e., Antidote No. 1) at an application rate of 8.96 kg/ha. Thus, in this test two antidotes were present, viz. R-25788 and one of the auxilliary antidotes, No. 2, 13 and 15.
Test procedures were those of Procedure II above.

corn [7] = experiment: Example 19, Procedure II: Herbicide No. 1 + ERADICANE EXTRA with added antidotes
Description: as §1, §2, §3, §9
The test reported in this example was performed in the same manner and with the same antidotes used in Example 18, the only difference being the substitution of the commercial herbicidal product ERADICANE® EXTRA for ERADICANE®. ERADICANE EXTRA is a formulation containing both an antidote, i.e., R-29148 (Antidote No. 5 herein), and an extender, dietholate.

[8] = Herbicide No.1 0.14 + No.7 4.48 kg/ha, no antidote
[9] = Herbicide No.1 0.14 kg/ha alone
[10] = Herbicide No.1 0.56 + No.7 (alachlor) 4.48 kg/ha, no antidote, average of duplicates
[11] = Herbicide No.1 0.56 kg/ha alone
[12] = Herbicide No.1 0.56 Kg/ha + SUTAN + 8.96 Kg/ha, no added antidote
[13] = Herbicide No.1 0.56 Kg/ha alone
[14] = Herbicide No.1 1.12 Kg/ha + SUTAN + 8.96 Kg/ha, no added antidote
[15] = Herbicide No.1 1.12 Kg/ha alone
[16] = Herbicide No.1 0.14 + No.7 4.48 kg/ha + antidote 2.24 kg/ha
[17] = Herbicide No.1 0.14 + No.7 4.48 kg/ha + antidote 8.96 kg/ha
[18] = Herbicide No.1 0.56 + No.7 4.48 kg/ha + antidote 2.24 kg/ha
[19] = Herbicide No.1 0.56 + No.7 4.48 kg/ha + antidote 8.96 kg/ha
[20] = Herbicide No.1 0.56 Kg/ha + SUTAN + 8.96 Kg/ha + antidote 2.24 Kg/ha
[21] = Herbicide No.1 0.56 Kg/ha + SUTAN + 8.96 Kg/ha + antidote 8.96 Kg/ha
[22] = Herbicide No.1 1.12 Kg/ha + SUTAN + 8.96 Kg/ha + antidote 2.24 Kg/ha
[23] = Herbicide No.1 1.12 Kg/ha + SUTAN + 8.96 Kg/ha + antidote 8.96 Kg/ha

COC(=O)c1c(Cl)nn(C)c1S(=O)(=O)NC(=O)Nc1nc(OC)cc(OC)n1 [Herbicide No. 1]
% Injury VL [1, 8]: 70%
% Injury VL [1, 9]: 40%
% Injury VL [1, 10]: 85%
% Injury VL [1, 11]: 60%
% Injury BYG [2, 8]: 100%
% Injury BYG [2, 9]: 20%
% Injury BYG [2, 10]: 100%
% Injury BYG [2, 11]: 70%
inhibition at 1120 g/ha ([3]; read-out: % Inhibition VL, Herb. No. 1 0.07 Kg/ha + Co-Herb. No. 4 1.12 Kg/ha, no antidote): 90%
inhibition at 140 g/ha ([3]; read-out: % Inhibition VL, Herb. No. 1 0.07 Kg/ha + Co-Herb. No. 6 0.14 Kg/ha, no antidote): 85%
inhibition at 280 g/ha ([3]; read-out: % Inhibition VL, Herb. No. 1 0.07 Kg/ha + Co-Herb. No. 7 0.28 Kg/ha, no antidote): 90%
inhibition at 280 g/ha ([3]; read-out: % Inhibition VL, Herb. No. 1 0.07 Kg/ha + Co-Herb. No. 12 0.28 Kg/ha, no antidote): 85%
inhibition at 1120 g/ha ([3]; read-out: % Inhibition VL, Herb. No. 1 0.14 Kg/ha + Co-Herb. No. 4 1.12 Kg/ha, no antidote): 90%
inhibition at 140 g/ha ([3]; read-out: % Inhibition VL, Herb. No. 1 0.14 Kg/ha + Co-Herb. No. 6 0.14 Kg/ha, no antidote): 95%
inhibition at 280 g/ha ([3]; read-out: % Inhibition VL, Herb. No. 1 0.14 Kg/ha + Co-Herb. No. 7 0.28 Kg/ha, no antidote): 90%
inhibition at 280 g/ha ([3]; read-out: % Inhibition VL, Herb. No. 1 0.14 Kg/ha + Co-Herb. No. 12 0.28 Kg/ha, no antidote): 90%
inhibition at 1120 g/ha ([3]; read-out: % Inhibition VL, Herb. No. 1 0.28 Kg/ha + Co-Herb. No. 4 1.12 Kg/ha, no antidote): 95%
inhibition at 140 g/ha ([3]; read-out: % Inhibition VL, Herb. No. 1 0.28 Kg/ha + Co-Herb. No. 6 0.14 Kg/ha, no antidote): 95%
inhibition at 280 g/ha ([3]; read-out: % Inhibition VL, Herb. No. 1 0.28 Kg/ha + Co-Herb. No. 7 0.28 Kg/ha, no antidote): 95%
inhibition at 280 g/ha ([3]; read-out: % Inhibition VL, Herb. No. 1 0.28 Kg/ha + Co-Herb. No. 12 0.28 Kg/ha, no antidote): 95%
inhibition at 1120 g/ha ([3]; read-out: % Inhibition VL, Herb. No. 1 0.56 Kg/ha + Co-Herb. No. 4 1.12 Kg/ha, no antidote): 90%
inhibition at 140 g/ha ([3]; read-out: % Inhibition VL, Herb. No. 1 0.56 Kg/ha + Co-Herb. No. 6 0.14 Kg/ha, no antidote): 95%
inhibition at 280 g/ha ([3]; read-out: % Inhibition VL, Herb. No. 1 0.56 Kg/ha + Co-Herb. No. 7 0.28 Kg/ha, no antidote): 95%
inhibition at 280 g/ha ([3]; read-out: % Inhibition VL, Herb. No. 1 0.56 Kg/ha + Co-Herb. No. 12 0.28 Kg/ha, no antidote): 90%
% Injury VL [4, 12]: 80%
% Injury VL [4, 13]: 65%
% Injury VL [4, 14]: 85%
% Injury VL [4, 15]: 80%
% Injury BYG [5, 12]: 93%
% Injury BYG [5, 13]: 55%
% Injury BYG [5, 14]: 93%
% Injury BYG [5, 15]: 70%

C=CCN(CC=C)C(=O)C(Cl)Cl [compound 1]
% Injury VL [1, 16]: 75%
% Injury VL [1, 17]: 80%
% Injury VL [1, 18]: 80%
% Injury VL [1, 19]: 85%
% Injury BYG [2, 16]: 100%
% Injury BYG [2, 17]: 100%
% Injury BYG [2, 18]: 100%
% Injury BYG [2, 19]: 100%
% Injury Corn (corn [6]; Herbicide No.1 0.56 kg/ha + ERADICANE 8.96 kg/ha, antidote 2.24 kg/ha): 30%
% Injury Corn (corn [6]; Herbicide No.1 0.56 kg/ha + ERADICANE 8.96 kg/ha, antidote 8.96 kg/ha): 25%
% Injury Corn (corn [6]; Herbicide No.1 1.12 kg/ha + ERADICANE 8.96 kg/ha, antidote 2.24 kg/ha): 35%
% Injury Corn (corn [6]; Herbicide No.1 1.12 kg/ha + ERADICANE 8.96 kg/ha, antidote 8.96 kg/ha): 25%
% Injury VL [4, 20]: 80%
% Injury VL [4, 21]: 80%
% Injury VL [4, 22]: 80%
% Injury VL [4, 23]: 80%
% Injury BYG [5, 20]: 93%
% Injury BYG [5, 21]: 90%
% Injury BYG [5, 22]: 85%
% Injury BYG [5, 23]: 90%
% Injury Corn (corn [7]; Herbicide No.1 0.56 kg/ha + ERADICANE EXTRA 8.96 kg/ha, antidote 2.24 kg/ha): 35%
% Injury Corn (corn [7]; Herbicide No.1 0.56 kg/ha + ERADICANE EXTRA 8.96 kg/ha, antidote 8.96 kg/ha): 15%
% Injury Corn (corn [7]; Herbicide No.1 1.12 kg/ha + ERADICANE EXTRA 8.96 kg/ha, antidote 2.24 kg/ha): 35%
% Injury Corn (corn [7]; Herbicide No.1 1.12 kg/ha + ERADICANE EXTRA 8.96 kg/ha, antidote 8.96 kg/ha): 25%
